Assay results from PubChem BioAssay AID1963436 (Molecular Pharmacology Branch, DTP, NCI, 2024).

Test system: OVCAR-5 complex spheroid (HUVEC/MSC), viability % T/C
Assay: Anticancer human tumor OVCAR-5 cell line growth inhibition [Asc];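 also: spheroids exposed to agents for 7 days before readout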;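 as to viability, T/C: 100% = DMSO vehicle-treated wells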
Details: for IC50: curve of first compound; for viability, T/C: stronger effect = lower value
Summary of the method: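 Stromal components (HUVEC and hMSC) are co-assembled with the cancer cells into multicellular spheroids. Drugs are then added singly or paired, at concentrations falling by half-log increments from a clinically achievable maximum, capped at 10 microM without known Cmax.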

[1] = second compound 0.03 µM, first compound 0.0316 µM
[2] = second compound 0.03 µM, first compound 0.1 µM
[3] = second compound 0.03 µM, first compound 0.316 µM
[4] = second compound 0.03 µM, first compound 1 µM
[5] = second compound 0.03 µM, first compound 3.16 µM
[6] = second compound 0.03 µM, first compound 10 µM
[7] = second compound 0.0949 µM, first compound 0.0316 µM
[8] = second compound 0.0949 µM, first compound 0.1 µM
[9] = second compound 0.0949 µM, first compound 0.316 µM
[10] = second compound 0.0949 µM, first compound 1 µM
[11] = second compound 0.0949 µM, first compound 3.16 µM
[12] = second compound 0.0949 µM, first compound 10 µM
[13] = second compound 0.3 µM, first compound 0.0316 µM
[14] = second compound 0.3 µM, first compound 0.1 µM
[15] = second compound 0.3 µM, first compound 0.316 µM
[16] = second compound 0.3 µM, first compound 1 µM
[17] = second compound 0.3 µM, first compound 3.16 µM
[18] = second compound 0.3 µM, first compound 10 µM
[19] = second compound 0.949 µM, first compound 0.0316 µM
[20] = second compound 0.949 µM, first compound 0.1 µM
[21] = second compound 0.949 µM, first compound 0.316 µM
[22] = second compound 0.949 µM, first compound 1 µM
[23] = second compound 0.949 µM, first compound 3.16 µM
[24] = second compound 0.949 µM, first compound 10 µM
[25] = second compound 3 µM, first compound 0.0316 µM
[26] = second compound 3 µM, first compound 0.1 µM
[27] = second compound 3 µM, first compound 0.316 µM
[28] = second compound 3 µM, first compound 1 µM
[29] = second compound 3 µM, first compound 3.16 µM
[30] = second compound 3 µM, first compound 10 µM

SMILES | IC50 (second compound 0.03 µM) [µM] | IC50 (second compound 0.0949 µM) [µM] | IC50 (second compound 0.3 µM) [µM] | IC50 (second compound 0.949 µM) [µM] | IC50 (second compound 3 µM) [µM] | viability, T/C [1] [%] | viability, T/C [2] [%] | viability, T/C [3] [%] | viability, T/C [4] [%] | viability, T/C [7] [%] | viability, T/C [8] [%] | viability, T/C [9] [%] | viability, T/C [10] [%] | viability, T/C [13] [%] | viability, T/C [14] [%] | viability, T/C [15] [%] | viability, T/C [16] [%] | viability, T/C [19] [%] | viability, T/C [20] [%] | viability, T/C [21] [%] | also measured
C=C(F)C(=O)N1CCN(c2nc(OCC3CCCN3C)nc3c2CCN(c2cccc4cccc(Cl)c24)C3)CC1CC#N (stereo not given) + CCN1C(C(=O)NC23CCC(C(=O)O)(CC2)CC3)C(c2cccc(Cl)c2F)C2(C(=O)Nc3cc(Cl)ccc32)C12CCCCC2 | 1.39 | 1.26 | 1.3 | 1.28 | 1.29 | 108 | 94.2 | 90.1 | 67.2 | 102 | 104 | 87.7 | 62.4 | 101 | 122 | 101 | 62.7 | 109 | 110 | 105 | viability, T/C [5]: 9.46%; viability, T/C [6]: 0.18%; viability, T/C [11]: 9.56%; viability, T/C [12]: 0.18%; viability, T/C [17]: 7.84%; viability, T/C [18]: 0.2%; viability, T/C [22]: 60.4%; viability, T/C [23]: 11.3%; viability, T/C [24]: 0.18%; viability, T/C [25]: 115%; viability, T/C [26]: 112%; viability, T/C [27]: 104%; viability, T/C [28]: 61.8%; viability, T/C [29]: 10.2%; viability, T/C [30]: 1.38%
C=CC(=O)N1CCN(c2nc(=O)n(-c3c(C)ccnc3C(C)C)c3nc(-c4c(O)cccc4F)c(F)cc23)C(C)C1 (stereo not given) + CCN1C(C(=O)NC23CCC(C(=O)O)(CC2)CC3)C(c2cccc(Cl)c2F)C2(C(=O)Nc3cc(Cl)ccc32)C12CCCCC2 | > 10 | > 10 | > 10 | > 10 | > 10 | 112 | 111 | 120 | 125 | 110 | 111 | 106 | 112 | 105 | 119 | 112 | 121 | 109 | 118 | 102 | viability, T/C [5]: 113%; viability, T/C [6]: 104%; viability, T/C [11]: 116%; viability, T/C [12]: 92.1%; viability, T/C [17]: 118%; viability, T/C [18]: 116%; viability, T/C [22]: 103%; viability, T/C [23]: 109%; viability, T/C [24]: 106%; viability, T/C [25]: 116%; viability, T/C [26]: 118%; viability, T/C [27]: 122%; viability, T/C [28]: 111%; viability, T/C [29]: 111%; viability, T/C [30]: 111%
COc1c(OCCCN2CCOCC2)ccc2c3n(c(=NC(=O)c4cnc(N)nc4)nc12)CCN3 + CCN1C(C(=O)NC23CCC(C(=O)O)(CC2)CC3)C(c2cccc(Cl)c2F)C2(C(=O)Nc3cc(Cl)ccc32)C12CCCCC2 | 0.0364 | 0.0295 | 0.0444 | 0.0381 | 0.0341 | 49.8 | 29.9 | 20 | 11.9 | 46.3 | 28.1 | 17.8 | 9.62 | 56.6 | 31.1 | 17.8 | 10.5 | 54.8 | 24.8 | 17.3 | viability, T/C (second compound 0.03 µM, first compound 0.00316 µM): 82.4%; viability, T/C (second compound 0.03 µM, first compound 0.01 µM): 79.6%; viability, T/C (second compound 0.0949 µM, first compound 0.00316 µM): 91.6%; viability, T/C (second compound 0.0949 µM, first compound 0.01 µM): 75.8%; viability, T/C (second compound 0.3 µM, first compound 0.00316 µM): 87.8%; viability, T/C (second compound 0.3 µM, first compound 0.01 µM): 82.3%; viability, T/C (second compound 0.949 µM, first compound 0.00316 µM): 79.4%; viability, T/C (second compound 0.949 µM, first compound 0.01 µM): 75.1%; viability, T/C [22]: 8.43%; viability, T/C (second compound 3 µM, first compound 0.00316 µM): 89.7%; viability, T/C (second compound 3 µM, first compound 0.01 µM): 83.9%; viability, T/C [25]: 51%; viability, T/C [26]: 22%; viability, T/C [27]: 15.2%; viability, T/C [28]: 8.71%
